According to ChEMBL document CHEMBL1201862, “PubChem BioAssay data set” (2004):
The source made the active and inactive calls.

Key:
[1] = molecular target: 1-acylglycerol-3-phosphate O-acyltransferase ABHD5/Perilipin-5 (Homo sapiens, UniProt Q00G26+Q8WTS1); assay: Luminescence-based biochemical high throughput dose response assay for inhibitors of the interaction of the lipase co-activator protein, abhydrolase domain containing 5 (ABHD5) with perilipin-5 (MLDP; PLIN5) (2K validation set). [Related pubchem assays (depositor defined):AID493035, AID493241]
1-acylglycerol-3-phosphate O-acyltransferase ABHD5/Perilipin-5, sequence (Q00G26 whole entry, the tested form may be a part): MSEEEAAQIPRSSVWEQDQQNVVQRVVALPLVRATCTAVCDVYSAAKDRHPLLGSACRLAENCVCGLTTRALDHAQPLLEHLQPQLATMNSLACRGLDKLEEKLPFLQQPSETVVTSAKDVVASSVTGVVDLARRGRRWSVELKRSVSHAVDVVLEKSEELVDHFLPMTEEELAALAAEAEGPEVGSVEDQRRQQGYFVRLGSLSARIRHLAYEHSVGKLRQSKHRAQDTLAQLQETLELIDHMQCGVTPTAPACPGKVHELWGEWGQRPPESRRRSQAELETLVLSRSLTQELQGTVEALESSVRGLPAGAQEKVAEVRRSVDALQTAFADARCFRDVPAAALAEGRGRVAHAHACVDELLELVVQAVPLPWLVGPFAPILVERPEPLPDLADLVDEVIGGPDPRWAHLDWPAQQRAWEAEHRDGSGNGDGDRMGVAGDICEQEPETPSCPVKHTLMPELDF
1-acylglycerol-3-phosphate O-acyltransferase ABHD5/Perilipin-5, sequence (Q8WTS1 whole entry, the tested form may be a part): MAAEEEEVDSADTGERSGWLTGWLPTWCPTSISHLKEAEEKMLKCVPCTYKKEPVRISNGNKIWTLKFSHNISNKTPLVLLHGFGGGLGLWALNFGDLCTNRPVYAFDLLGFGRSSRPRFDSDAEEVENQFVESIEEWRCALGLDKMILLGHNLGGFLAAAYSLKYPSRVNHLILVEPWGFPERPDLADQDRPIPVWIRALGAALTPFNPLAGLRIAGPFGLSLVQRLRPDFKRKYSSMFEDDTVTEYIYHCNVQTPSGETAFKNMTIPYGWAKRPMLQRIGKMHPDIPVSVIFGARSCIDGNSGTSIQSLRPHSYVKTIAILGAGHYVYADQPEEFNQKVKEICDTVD

Perilipin-1/ABHD5 = Perilipin-1/ABHD5 (Homo sapiens, UniProt O60240+Q8WTS1); assay: Luminescence-based biochemical high throughput dose response assay for inhibitors of the interaction of the lipase co-activator protein, abhydrolase domain containing 5 (ABHD5) with perilipin-1 (PLIN1) (2K validation set). [Related pubchem assays (depositor defined):AID493027, AID493057]
[2] = molecular target: Induced myeloid leukemia cell differentiation protein Mcl-1 (Homo sapiens, UniProt Q07820); format: functional
[3] = molecular target: T1, Kappa-type opioid receptor (Homo sapiens, UniProt P41145); assay: SAR analysis of Antagonists of the Kappa Opioid Receptor (KOR) using an Image-Based Assay - Set 3. [Related pubchem assays (depositor defined):AID1777, AID1785]; format: functional
T1 sequence (P41145 whole entry): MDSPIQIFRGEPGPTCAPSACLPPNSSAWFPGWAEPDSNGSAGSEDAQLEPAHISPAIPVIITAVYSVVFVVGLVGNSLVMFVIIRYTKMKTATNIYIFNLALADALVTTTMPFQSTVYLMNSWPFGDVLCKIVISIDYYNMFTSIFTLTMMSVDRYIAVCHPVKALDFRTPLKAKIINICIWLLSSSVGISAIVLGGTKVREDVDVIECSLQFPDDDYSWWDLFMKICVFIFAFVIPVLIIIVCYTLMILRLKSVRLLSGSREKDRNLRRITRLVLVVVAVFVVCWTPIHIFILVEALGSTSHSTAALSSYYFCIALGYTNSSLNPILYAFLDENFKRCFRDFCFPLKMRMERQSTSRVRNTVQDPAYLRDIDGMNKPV

[4] = molecular target: T1, Kappa-type opioid receptor; assay: SAR analysis of small molecule antagonists of the kappa opioid receptor via a luminescent beta-arrestin assay - Set 3. [Related pubchem assays (depositor defined):AID1777, AID1778, AID1785, AID1786, AID1966, AID2133, AID2136, AID2285, AID2495]; format: functional
[5] = molecular target: Delta-type opioid receptor (Homo sapiens, UniProt P41143); assay: SAR Analysis of Antagonists of the DOR Receptor using an Image-Based Assay - Set 3. [Related pubchem assays (depositor defined):AID1777, AID1785]; format: functional;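 further: U2OS cells expressing DOR1 and beta-arrestin GFP stimulated with 100 nM SNC80; imaging of GFP-tagged beta-arrestin moving into spots after receptor activation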
Delta-type opioid receptor, sequence (P41143 whole entry): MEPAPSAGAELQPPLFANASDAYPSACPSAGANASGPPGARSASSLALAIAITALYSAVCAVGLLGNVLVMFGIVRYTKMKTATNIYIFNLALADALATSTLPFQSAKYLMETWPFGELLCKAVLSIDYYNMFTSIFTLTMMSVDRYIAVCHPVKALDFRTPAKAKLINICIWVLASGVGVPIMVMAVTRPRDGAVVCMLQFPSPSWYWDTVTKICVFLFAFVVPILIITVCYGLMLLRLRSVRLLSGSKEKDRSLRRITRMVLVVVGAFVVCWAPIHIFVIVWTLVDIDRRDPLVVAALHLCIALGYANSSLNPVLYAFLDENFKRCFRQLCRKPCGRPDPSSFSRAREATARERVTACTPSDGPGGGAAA

Mu-type opioid receptor = Mu-type opioid receptor (Homo sapiens, UniProt P35372); assay: SAR Analysis of Antagonists of the MOR Receptor using an Image-Based Assay - Set 3. [Related pubchem assays (depositor defined):AID1777, AID1785, AID1786, AID1966, AID2133, AID2136, AID2284, AID2285, AID2420]; format: functional
[6] = A549 cell cytotoxicity, dose response, cytotoxicity control, plate reader, cherry-pick, antagonist series (AID 743412); format: functional, cell-based
Integrin alpha-4 = Integrin alpha-4 (Homo sapiens, UniProt P13612); assay: VLA-4 integrin allosteric ligands, SAR follow-up, cell-based, LIBS antibody binding, flow cytometry (AID 488791); format: functional
[7] = HEK293 cell cytotoxicity, dose response, cytotoxicity control, plate reader, cherry-picked samples (AID 743446); format: functional, cell-based
[8] = molecular target: T2, Ubiquitin-conjugating enzyme E2 N (Homo sapiens, UniProt P61088); format: functional;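 further: Dose-response confirmation in a TR-FRET assay detecting UBC13-driven polyubiquitin chain formation, inhibition measured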
T2 sequence (P61088 whole entry): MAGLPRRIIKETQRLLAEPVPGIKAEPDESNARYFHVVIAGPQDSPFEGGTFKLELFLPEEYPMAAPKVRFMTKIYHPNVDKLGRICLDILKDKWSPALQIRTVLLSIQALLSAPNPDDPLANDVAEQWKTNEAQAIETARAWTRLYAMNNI

[9] = LGR2 antagonists, dose response, cell-based, HEK293, CRE-luciferase reporter, cherry pick, set 2 (AID 743343); format: functional;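 further: transfected cells were stimulated with diluted bursicon conditioned medium after compound addition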
[10] = Luminescence Cell-Based Dose Retest to Confirm Inhibitors of Cancer Stem Cells. [Related pubchem assays (depositor defined):AID2717, AID2721]; format: functional; conditions: Homo sapiens
[11] = MC4R antagonists, dose response, counter-screen for LGR2 antagonist project, cell-based, plate reader, cherry pick (AID 743444); format: functional;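 further: transfected HEK 293 cells stimulated with alpha-MSH peptide; potency of inhibitors of the alpha-MSH evoked signal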
[12] = HepG2 cell cytotoxicity, dose response, cytotoxicity control, plate reader, cherry-pick, antagonist series (AID 743416); format: functional, cell-based
Melanocortin receptor 4 = Melanocortin receptor 4 (Homo sapiens, UniProt P32245); format: functional, cell-based;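 further: Cell-based assay with luminescence read-out, confirmatory dose-response testing for agonist activity of biased ligands at MC4R; human U2OS cells with tagged receptor and beta-arrestin; potency of agonists that increase receptor coupling to beta-arrestin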
[13] = molecular target: Dual specificity protein phosphatase 3 (Homo sapiens, UniProt P51452); assay: SAR VHR1 Fluorescent Assay for In Vitro dose response studies Set 2. [Related pubchem assays (depositor defined):AID1654, AID1661, AID1878]; format: functional
Dual specificity protein phosphatase 3, sequence (P51452 whole entry): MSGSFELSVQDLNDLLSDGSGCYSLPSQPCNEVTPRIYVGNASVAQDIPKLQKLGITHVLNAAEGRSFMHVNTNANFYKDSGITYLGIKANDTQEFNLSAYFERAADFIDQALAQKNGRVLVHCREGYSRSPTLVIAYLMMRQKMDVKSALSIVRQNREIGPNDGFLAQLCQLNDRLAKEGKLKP

[14] = molecular target: Tyrosine-protein phosphatase non-receptor type 7 (Homo sapiens, UniProt P35236); assay: SAR analysis of chemical inhibitors of HePTP using a Fluorescent assay - Set 2. [Related pubchem assays (depositor defined):AID1059, AID1077, AID1661, AID2085, AID521]; format: functional
[15] = molecular target: Eukaryotic translation initiation factor 4H (Homo sapiens, UniProt Q15056); assay: human eIF4H binding inhibitors, primary screen, translation initiation inhibitor project, biochemical, uHTS, fluorescence polarization (AID 2012)
[16] = molecular target: T3, Voltage-gated N-type calcium channel alpha-1B subunit/Amyloid beta A4 precursor protein-binding family A member 1 (Homo sapiens, UniProt Q00975+Q02410); format: protein assay
T3 sequence (Q00975 whole entry): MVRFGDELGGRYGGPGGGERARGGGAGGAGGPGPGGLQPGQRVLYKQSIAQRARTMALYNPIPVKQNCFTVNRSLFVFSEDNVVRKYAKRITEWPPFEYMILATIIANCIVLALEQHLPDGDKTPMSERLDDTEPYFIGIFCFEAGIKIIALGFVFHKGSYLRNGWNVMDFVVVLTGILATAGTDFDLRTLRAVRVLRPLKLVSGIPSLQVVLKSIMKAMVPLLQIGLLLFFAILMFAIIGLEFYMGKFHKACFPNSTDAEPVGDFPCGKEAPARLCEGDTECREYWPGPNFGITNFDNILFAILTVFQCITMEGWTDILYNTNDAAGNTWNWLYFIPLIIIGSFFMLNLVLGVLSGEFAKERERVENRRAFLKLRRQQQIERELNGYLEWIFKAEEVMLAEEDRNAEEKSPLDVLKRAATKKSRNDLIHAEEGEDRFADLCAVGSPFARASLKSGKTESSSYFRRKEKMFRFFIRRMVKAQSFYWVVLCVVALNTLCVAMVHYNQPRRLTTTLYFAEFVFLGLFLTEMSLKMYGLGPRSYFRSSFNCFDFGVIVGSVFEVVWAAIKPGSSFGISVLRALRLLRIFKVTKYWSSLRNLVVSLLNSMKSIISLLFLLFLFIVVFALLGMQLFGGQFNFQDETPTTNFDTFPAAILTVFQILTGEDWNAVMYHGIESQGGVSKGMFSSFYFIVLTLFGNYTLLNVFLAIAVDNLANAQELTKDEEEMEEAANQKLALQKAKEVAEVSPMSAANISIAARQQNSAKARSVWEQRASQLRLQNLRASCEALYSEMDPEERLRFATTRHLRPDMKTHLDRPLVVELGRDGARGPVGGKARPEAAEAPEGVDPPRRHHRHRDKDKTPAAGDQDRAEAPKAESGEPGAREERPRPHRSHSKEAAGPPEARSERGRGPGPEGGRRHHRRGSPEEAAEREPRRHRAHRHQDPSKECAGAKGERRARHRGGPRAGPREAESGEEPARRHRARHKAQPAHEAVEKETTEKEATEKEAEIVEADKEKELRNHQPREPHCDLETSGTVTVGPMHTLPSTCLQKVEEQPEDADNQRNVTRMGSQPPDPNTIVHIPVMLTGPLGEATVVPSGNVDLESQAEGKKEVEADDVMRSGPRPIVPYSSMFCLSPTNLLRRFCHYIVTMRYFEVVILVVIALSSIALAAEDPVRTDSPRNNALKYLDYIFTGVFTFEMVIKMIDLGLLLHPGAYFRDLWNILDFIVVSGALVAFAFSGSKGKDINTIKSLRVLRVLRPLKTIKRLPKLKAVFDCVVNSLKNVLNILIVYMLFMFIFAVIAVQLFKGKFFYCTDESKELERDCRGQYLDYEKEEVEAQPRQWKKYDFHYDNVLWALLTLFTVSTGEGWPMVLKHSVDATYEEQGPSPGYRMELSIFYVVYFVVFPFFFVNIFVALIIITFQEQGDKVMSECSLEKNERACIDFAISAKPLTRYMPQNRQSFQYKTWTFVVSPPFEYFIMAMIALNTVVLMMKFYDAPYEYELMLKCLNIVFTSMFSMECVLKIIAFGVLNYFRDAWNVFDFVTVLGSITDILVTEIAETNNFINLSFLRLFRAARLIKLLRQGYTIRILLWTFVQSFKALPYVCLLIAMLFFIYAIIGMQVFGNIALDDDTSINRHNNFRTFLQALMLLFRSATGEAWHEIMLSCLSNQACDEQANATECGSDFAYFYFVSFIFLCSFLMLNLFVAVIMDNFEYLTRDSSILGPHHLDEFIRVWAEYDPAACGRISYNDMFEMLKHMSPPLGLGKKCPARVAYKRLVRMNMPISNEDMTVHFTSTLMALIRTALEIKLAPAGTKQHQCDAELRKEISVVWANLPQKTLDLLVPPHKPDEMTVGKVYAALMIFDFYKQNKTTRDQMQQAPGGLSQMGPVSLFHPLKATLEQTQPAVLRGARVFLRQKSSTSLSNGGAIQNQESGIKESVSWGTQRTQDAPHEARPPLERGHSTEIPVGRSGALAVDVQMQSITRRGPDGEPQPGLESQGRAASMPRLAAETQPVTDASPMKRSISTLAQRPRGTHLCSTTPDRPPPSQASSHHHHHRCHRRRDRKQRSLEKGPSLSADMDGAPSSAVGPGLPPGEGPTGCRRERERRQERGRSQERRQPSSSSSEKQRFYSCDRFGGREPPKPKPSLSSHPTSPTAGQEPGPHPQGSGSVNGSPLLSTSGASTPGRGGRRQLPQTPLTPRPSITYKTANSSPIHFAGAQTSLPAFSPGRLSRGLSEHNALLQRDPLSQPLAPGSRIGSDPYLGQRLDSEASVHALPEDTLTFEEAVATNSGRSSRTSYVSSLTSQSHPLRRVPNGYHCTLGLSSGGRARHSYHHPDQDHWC
T3 sequence (Q02410 whole entry): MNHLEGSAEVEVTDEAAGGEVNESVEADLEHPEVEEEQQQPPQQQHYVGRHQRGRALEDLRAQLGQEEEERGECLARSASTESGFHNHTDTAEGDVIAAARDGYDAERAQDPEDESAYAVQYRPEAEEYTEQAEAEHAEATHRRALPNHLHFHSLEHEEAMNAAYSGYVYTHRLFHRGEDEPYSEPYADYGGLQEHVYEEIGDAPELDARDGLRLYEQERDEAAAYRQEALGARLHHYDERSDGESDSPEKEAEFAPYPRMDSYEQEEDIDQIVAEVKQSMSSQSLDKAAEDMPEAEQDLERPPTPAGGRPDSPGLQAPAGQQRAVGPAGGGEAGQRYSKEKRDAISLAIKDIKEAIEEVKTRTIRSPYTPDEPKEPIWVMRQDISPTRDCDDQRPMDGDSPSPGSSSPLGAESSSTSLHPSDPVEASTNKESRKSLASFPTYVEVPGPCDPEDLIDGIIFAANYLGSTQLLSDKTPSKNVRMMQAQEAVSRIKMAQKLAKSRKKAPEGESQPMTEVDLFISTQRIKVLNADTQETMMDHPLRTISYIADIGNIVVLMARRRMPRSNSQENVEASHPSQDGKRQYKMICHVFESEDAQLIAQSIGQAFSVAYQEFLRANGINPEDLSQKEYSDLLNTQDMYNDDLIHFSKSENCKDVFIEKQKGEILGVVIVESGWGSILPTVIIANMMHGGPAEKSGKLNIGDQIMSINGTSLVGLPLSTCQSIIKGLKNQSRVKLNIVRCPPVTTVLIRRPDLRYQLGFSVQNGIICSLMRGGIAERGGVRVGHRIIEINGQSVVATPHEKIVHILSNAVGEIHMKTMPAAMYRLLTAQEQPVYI

[17] = molecular target: T3, Voltage-gated N-type calcium channel alpha-1B subunit/Amyloid beta A4 precursor protein-binding family A member 1; format: protein assay; remark: listed apart in the source
[18] = molecular target: Polyadenylate-binding protein 1 (Homo sapiens, UniProt P11940); assay: PABP poly(A) RNA binding inhibitors, primary screen, biochemical, fluorescence polarization, uHTS (AID 2014)
T-cell = assay: inhibitors of CD8+ T cell–vesicle binding, dose response, mouse 2C CD8+ T cells, flow cytometry (AID 485284); format: functional
BJ [19] = assay: cytotoxicity toward BJ-TERT fibroblasts, dose response, cell-based, RAS-independent, luminescence (AID 1933); format: functional; conditions: Homo sapiens
HEK293 [20] = assay: cells; format: functional, cell-based; conditions: Homo sapiens
Nonstructural protein 1 = Nonstructural protein 1 (Influenza A virus, UniProt Q194T2); format: functional, Influenza A virus (A/California/07/2009(H1N1))
BJ [21] = assay: cells; format: functional, cell-based; conditions: Homo sapiens
[22] = C. albicans growth with fluconazole, confirmation, fluorescence, retest (AID 2467); format: functional, cell-based
[23] = cytotoxicity toward NIH3T3 fibroblasts, dose response, counter-screen, cell-based, ATP luminescence, mouse fibroblasts (AID 2010); format: functional;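 further: cells exposed to compound for about 90 hours before reading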
[24] = cytotoxicity in HEK-293T cells, dose response, cytotoxicity control for TCR NF-kB inhibitor project, luminescence, T-cell screen hits (AID 489026); format: functional, cell-based;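 further: cells exposed to compound about 14 hours before the viability readout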
HEK293 [25] = assay: NOD1 signaling inhibitors, primary screen, cell-based, luminescence, uHTS (AID 1578); format: functional; conditions: Homo sapiens
[26] = molecular target: Nucleotide-binding oligomerization domain-containing protein 2 (Homo sapiens, UniProt Q9HC29); assay: NOD2 signaling inhibitors, cell-based, luminescence, uHTS, HEK293 (AID 1566); format: functional
HEK293 [27] = assay: cells; format: functional, cell-based; conditions: Homo sapiens; remark: listed apart in the source
HEK293 [28] = assay: NOD2 signaling inhibitors in MDP-stimulated cells, cell-based, uHTS, luminescence (AID 2001); format: functional; conditions: Homo sapiens
[29] = NIH-3T3 fibroblast cytotoxicity, dose response, cytotoxicity control, cell-based, fluorescence, Alamar Blue, secondary assay (AID 2327); format: functional;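 further: NIH-3T3 mouse fibroblasts cultured with fluconazole at 8 µg/mL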
[30] = cytotoxicity toward DRD oncogenic fibroblasts, dose response, cell-based, non-viral oncogenic, luminescence (AID 1934); format: functional; conditions: Homo sapiens
Protein S100-A4 = Protein S100-A4 (Homo sapiens, UniProt P26447); assay: S100A4-myosin IIA binding inhibitor potency, dose response, biochemical, fluorescence polarization, cherry-picked hits (AID 687001); format: functional
Protein S100-A4, sequence (P26447 whole entry): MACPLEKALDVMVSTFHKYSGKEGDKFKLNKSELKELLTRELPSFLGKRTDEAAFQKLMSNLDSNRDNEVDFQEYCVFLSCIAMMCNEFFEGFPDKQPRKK

[31] = molecular target: G-protein coupled receptor 55 (Homo sapiens, UniProt Q9Y2T6); assay: GPR55 agonists via beta-arrestin recruitment, primary screen, imaging, U2OS cells, beta-arrestin-GFP redistribution (AID 1961); format: functional
HEK293 [32] = assay: cells; format: functional, cell-based; conditions: Homo sapiens; remark: listed apart in the source
[33] = inhibitors of intracellular T. cruzi replication, confirmation, NIH3T3 host cells, beta-gal luminescence (AID 2044); format: functional, cell-based;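 further: intracellular parasites grown in NIH/3T3 mouse fibroblasts as host cells; luminescent beta-galactosidase reporter signal from transgenic T. cruzi replicating inside host cells; inhibitors lower the luminescence signal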
BJ [34] = assay: cytotoxicity toward BJ-TERT-LT-ST fibroblasts, dose response, cell-based, RAS-independent, luminescence (AID 1935); format: functional; conditions: Homo sapiens;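 further: BJ fibroblasts immortalized with TERT plus LT and ST oncogenes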
[35] = molecular target: T4, Histone-lysine N-methyltransferase NSD2 (Homo sapiens, UniProt O96028); format: biochemical
T4 sequence (O96028 whole entry): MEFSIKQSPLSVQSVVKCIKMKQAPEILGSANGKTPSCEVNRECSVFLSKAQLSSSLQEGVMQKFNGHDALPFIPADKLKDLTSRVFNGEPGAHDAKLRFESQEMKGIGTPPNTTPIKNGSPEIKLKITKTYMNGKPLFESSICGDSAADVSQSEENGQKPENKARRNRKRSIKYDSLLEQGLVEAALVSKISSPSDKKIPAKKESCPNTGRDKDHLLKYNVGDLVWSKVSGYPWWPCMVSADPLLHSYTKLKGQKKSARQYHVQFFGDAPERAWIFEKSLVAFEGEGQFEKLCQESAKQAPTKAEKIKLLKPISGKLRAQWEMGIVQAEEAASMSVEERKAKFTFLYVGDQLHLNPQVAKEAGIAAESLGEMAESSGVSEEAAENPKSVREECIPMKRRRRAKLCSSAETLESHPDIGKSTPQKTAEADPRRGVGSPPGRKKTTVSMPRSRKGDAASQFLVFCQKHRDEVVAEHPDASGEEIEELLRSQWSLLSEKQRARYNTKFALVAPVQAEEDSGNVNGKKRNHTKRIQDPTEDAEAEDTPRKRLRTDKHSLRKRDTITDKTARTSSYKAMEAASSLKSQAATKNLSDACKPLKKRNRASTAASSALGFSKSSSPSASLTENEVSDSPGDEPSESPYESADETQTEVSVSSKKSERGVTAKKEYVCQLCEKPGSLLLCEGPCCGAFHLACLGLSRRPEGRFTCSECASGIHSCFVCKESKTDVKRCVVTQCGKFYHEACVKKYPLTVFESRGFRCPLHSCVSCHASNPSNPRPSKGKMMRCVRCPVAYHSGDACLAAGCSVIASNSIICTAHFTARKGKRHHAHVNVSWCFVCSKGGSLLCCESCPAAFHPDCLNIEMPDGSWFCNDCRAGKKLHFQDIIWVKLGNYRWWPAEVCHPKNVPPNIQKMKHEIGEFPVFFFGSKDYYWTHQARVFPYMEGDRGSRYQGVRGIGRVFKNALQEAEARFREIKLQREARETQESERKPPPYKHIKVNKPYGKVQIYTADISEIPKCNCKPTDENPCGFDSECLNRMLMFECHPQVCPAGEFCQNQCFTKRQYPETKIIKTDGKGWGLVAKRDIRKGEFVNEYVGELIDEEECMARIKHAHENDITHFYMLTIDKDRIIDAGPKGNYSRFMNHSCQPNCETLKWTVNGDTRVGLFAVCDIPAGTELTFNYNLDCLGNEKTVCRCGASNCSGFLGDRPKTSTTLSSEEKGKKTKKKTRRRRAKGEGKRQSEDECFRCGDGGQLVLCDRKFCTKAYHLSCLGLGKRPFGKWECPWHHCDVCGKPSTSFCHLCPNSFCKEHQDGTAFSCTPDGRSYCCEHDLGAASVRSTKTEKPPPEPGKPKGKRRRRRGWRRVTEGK

Question: For COC(=O)c1cc(-c2ccc(C)o2)nc2ccccc12, which IC50 [1] is on record?
Answer: 8.7 µM (active)

Question: And the IC50 (Perilipin-1/ABHD5)?
Answer: 8.68 µM (active)

Question: What about the IC50 [2] of the same compound?
Answer: 18 µM (active)

Question: Which IC50 [3] does the source give for COc1ccc(S(=O)(=O)NCc2ccc(C(=O)NCCN(Cc3ccccc3)C(C)C)cc2)cc1 here?
Answer: 0.806 µM (active)

Question: What about the IC50 [4] of the same compound?
Answer: 2.63 µM (active)

Question: What about the IC50 [5] of the same compound?
Answer: > 32 µM (inactive)

Question: What about the IC50 (Mu-type opioid receptor) of the same compound?
Answer: 9.6 µM (active)

Question: What does the source list for COc1cccc(-c2sc3ccccc3c2-c2ccc(OCCN(C)C)cc2)c1?
Answer: AC50 [6]: 7.82 µM (active); EC50 (Integrin alpha-4): 29.1 µM (active); AC50 [7]: 15.2 µM (active); IC50 [8]: > 20 µM (inactive); AC50 [9]: 13 µM (active); AC50 [10]: 3.29 µM (active); AC50 [11]: 11.7 µM (active); AC50 [12]: 8.01 µM (active); EC50 (Melanocortin receptor 4): > 3.3 µM (active)

Question: Which IC50 [13] does the source give for CC(C)(C)c1cc(C(=S)NCc2ccc(F)c(C(F)(F)F)c2)cc(C(C)(C)C)c1 here?
Answer: 67.4 µM (active)

Question: What about the IC50 [14] of the same compound?
Answer: 27 µM (active)

Question: Which IC50 [15] does the source give for CC(/C=C/c1ccco1)=N/NC(=O)Cc1cccs1 here?
Answer: 23.6 µM (active)

Question: And the IC50 [16]?
Answer: 24.6 µM (active)

Question: And the IC50 [17]?
Answer: 18.9 µM (active)

Question: And the IC50 [18]?
Answer: > 100 µM (inactive)

Question: Which EC50 (T-cell) does the source give for Cc1ccc(/C=N/NC2=NC(=O)C(CC(=O)Nc3ccc(Cl)cc3)S2)o1 (stereo not drawn) here?
Answer: 15.2 µM (active)

Question: Which results are given for CCN(CC)c1ccc(/C=C/c2ccc3ccc(OC)cc3[n+]2CC)cc1?
Answer: EC50 (BJ [19]): 0.732 µM (inconclusive); IC50 (HEK293 [20]): 1.9 µM (active); IC50 (Nonstructural protein 1): 17.3 µM (active); EC50 (BJ [21]): 2.82 µM (active); EC50 [22]: < 0.03 µM (active); EC50 [23]: 5.54 µM (active); IC50 [24]: > 80 µM (inactive); EC50 (HEK293 [25]): 3.64 µM (active); EC50 [26]: 6.78 µM (active); IC50 (HEK293 [27]): > 20 µM (inactive); IC50 (HEK293 [28]): 2.2 µM (active); EC50 [29]: > 160 µM (inconclusive); EC50 [30]: 2.25 µM (active); AC50 (Protein S100-A4): 1.12 µM (active); EC50 [31]: > 32 µM (inactive); EC50 (cells): 0.023 µM (active); IC50 (HEK293 [32]): 9.34 µM (active); EC50 [33]: < 0.1 µM (active); EC50 (BJ [34]): 0.892 µM (inconclusive); AC50 [35]: 17.4 µM (active)
